Results as given in patent US7659404B2, “Broad spectrum 2-(substituted-amino)-benzothiazole sulfonamide HIV protease inhibitors” (Tibotec Pharmaceuticals Ltd., priority 2001, dated 2010).

What was measured:
[1] = test system: clinically isolated HIV strain R; assay: Antiviral spectrum, cellular assay (fold resistance), strain R; assay type: cell-based; conditions: FR=EC50(mutant strain)/EC50(HIV-1 strain LAI)
Protocol: (§1) HIV- or mock-infected MT4 cells were incubated for five days in the presence of various concentrations of the inhibitor. At the end of the incubation period, all HIV-infected cells have been killed by the replicating virus in the control cultures in the absence of any inhibitor. Cell viability is measured by measuring the concentration of MTT, a yellow, water soluble tetrazolium dye that is converted to a purple, water insoluble formazan in the mitochondria of living cells only. Upon solubilization of the resulting formazan crystals with isopropanol, the absorbance of the solution is monitored at 540 nm. The values correlate directly to the number of living cells remaining in the culture at the completion of the five day incubation. The inhibitory activity of the compound was monitored on the virus-infected cells and was expressed as EC50 and EC90. These values represent the amount of the compound required to protect 50% and 90%, respectively, of the cells from the cytopathogenic effect of the virus. The toxicity of the compound was measured on the mock-infected cells and was expressed as CC50, which represents the concentration of compound required to inhibit the growth of the cells by 50%. The selectivity index (SI) (ratio CC50/EC50) is an indication of the selectivity of the anti-HIV activity of the inhibitor.
(§2) Because of the increasing emergence of drug resistant HIV strains, the present compounds were tested for their potency against clinically isolated HIV strains harboring several mutations. These mutations are associated with resistance to protease inhibitors and result in viruses that show various degrees of phenotypic cross-resistance to the currently commercially available drugs such as for instance saquinavir, ritonavir, nelfinavir, indinavir and amprenavir.
(§3) As a measure of the broad spectrum activity of the present compounds, the fold resistance (FR) defined as FR=EC50(mutant strain)/EC50(HIV-1 strain LAI).

[2] = test system: clinically isolated HIV strain K; assay: Antiviral spectrum, cellular assay (fold resistance), strain K; assay type: cell-based; conditions: FR=EC50(mutant strain)/EC50(HIV-1 strain LAI)
Protocol: as §1, §2, §3

[3] = test system: clinically isolated HIV strain Q; assay: Antiviral spectrum, cellular assay (fold resistance), strain Q; assay type: cell-based; conditions: FR=EC50(mutant strain)/EC50(HIV-1 strain LAI)
Protocol: as §1, §2, §3

[4] = test system: clinically isolated HIV strain L; assay: Antiviral spectrum, cellular assay (fold resistance), strain L; assay type: cell-based; conditions: FR=EC50(mutant strain)/EC50(HIV-1 strain LAI)
Protocol: as §1, §2, §3

virus strain S (R13080) = assay: microbe, parasite or virus in culture; assay type: cell-based, HIV; conditions: FR=EC50(mutant strain)/EC50(HIV-1 strain LAI); strain S
Outline: (§4)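 First, MT4 cells were infected with HIV (or mock-infected) and incubated five days with varying inhibitor concentrations. Next, living cells were quantified via MTT reduction, measuring absorbance at 540 nm. Finally, EC50 was derived and fold resistance calculated relative to HIV-1 strain LAI.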

virus strain F (R13025) = assay: microbe, parasite or virus in culture; assay type: cell-based, HIV; conditions: FR=EC50(mutant strain)/EC50(HIV-1 strain LAI); strain F
Outline: as §4

[5] = test system: clinically isolated HIV strain E; assay: Antiviral spectrum, cellular assay (fold resistance), strain E; assay type: cell-based; conditions: FR=EC50(mutant strain)/EC50(HIV-1 strain LAI)
Protocol: as §1, §2, §3

[6] = test system: clinically isolated HIV strain N; assay: Antiviral spectrum, cellular assay (fold resistance), strain N; assay type: cell-based; conditions: FR=EC50(mutant strain)/EC50(HIV-1 strain LAI)
Protocol: as §1, §2, §3

[7] = test system: clinically isolated HIV strain C; assay: Antiviral spectrum, cellular assay (fold resistance), strain C; assay type: cell-based; conditions: FR=EC50(mutant strain)/EC50(HIV-1 strain LAI)
Protocol: as §1, §2, §3

[8] = test system: clinically isolated HIV strain A; assay: Antiviral spectrum, cellular assay (fold resistance), strain A; assay type: cell-based; conditions: FR=EC50(mutant strain)/EC50(HIV-1 strain LAI)
Protocol: as §1, §2, §3

[9] = test system: clinically isolated HIV strain O; assay type: cell-based; conditions: FR=EC50(mutant strain)/EC50(HIV-1 strain LAI)
Outline: as §4

[10] = test system: clinically isolated HIV strain J; assay type: cell-based; conditions: FR=EC50(mutant strain)/EC50(HIV-1 strain LAI)
Outline: as §4

[11] = test system: clinically isolated HIV strain I; assay type: cell-based; conditions: FR=EC50(mutant strain)/EC50(HIV-1 strain LAI)
Outline: as §4

[12] = test system: clinically isolated HIV strain T; assay type: cell-based; conditions: FR=EC50(mutant strain)/EC50(HIV-1 strain LAI)
Outline: as §4

[13] = test system: clinically isolated HIV strain H; assay type: cell-based; conditions: FR=EC50(mutant strain)/EC50(HIV-1 strain LAI)
Outline: as §4

[14] = test system: clinically isolated HIV strain P; assay: Antiviral spectrum, cellular assay (fold resistance), strain P; assay type: cell-based; conditions: FR=EC50(mutant strain)/EC50(HIV-1 strain LAI)
Protocol: as §1, §2, §3

[15] = test system: clinically isolated HIV strain M; assay: Antiviral spectrum, cellular assay (fold resistance), strain M; assay type: cell-based; conditions: FR=EC50(mutant strain)/EC50(HIV-1 strain LAI)
Protocol: as §1, §2, §3

[16] = test system: clinically isolated HIV strain B; assay: Antiviral spectrum, cellular assay (fold resistance), strain B; assay type: cell-based; conditions: FR=EC50(mutant strain)/EC50(HIV-1 strain LAI)
Protocol: as §1, §2, §3

[17] = test system: clinically isolated HIV strain D; assay: Antiviral spectrum, cellular assay (fold resistance), strain D; assay type: cell-based; conditions: FR=EC50(mutant strain)/EC50(HIV-1 strain LAI)
Protocol: as §1, §2, §3

[18] = test system: clinically isolated HIV strain G; assay: Antiviral spectrum, cellular assay (fold resistance), strain G; assay type: cell-based; conditions: FR=EC50(mutant strain)/EC50(HIV-1 strain LAI)
Protocol: as §1, §2, §3

SMILES	fold resistance (FR), strain R [1]	fold resistance (FR), strain K [2]	fold resistance (FR), strain Q [3]	fold resistance (FR), strain L [4]	fold resistance (FR), strain S (virus strain S (R13080))	fold resistance (FR), strain F (virus strain F (R13025))	fold resistance (FR), strain E [5]	fold resistance (FR), strain N [6]	fold resistance (FR), strain C [7]	fold resistance (FR), strain A [8]	fold resistance (FR), strain O [9]	fold resistance (FR), strain J [10]	fold resistance (FR), strain I [11]	fold resistance (FR), strain T [12]	fold resistance (FR), strain H [13]	fold resistance (FR), strain P [14]	fold resistance (FR), strain M [15]	fold resistance (FR), strain B [16]	fold resistance (FR), strain D [17]	fold resistance (FR), strain G [18]
CC(C)CN(C[C@@H](O)[C@H](Cc1ccccc1)NC(=O)O[C@H]1CCOC1)S(=O)(=O)c1ccc2nc(NC(=O)CN3CCNCC3)sc2c1 [Compound 35]	0.9	0.4	0.9	0.2	4.3	2.1	0.9	1.1	0.6	0.5	0.3	0.8	0.8	22.2	0.8	0.2	0.6	0.9	0.5	0.5
CC(C)CN(CC(O)C(Cc1ccccc1)NC(=O)OC1COC2OCCC12)S(=O)(=O)c1ccc2nc(NC(=O)CN3CCCC3)sc2c1 (mixture of isomers) [Compound 7]	0.4	0.3	0.4	0.1	2.0	0.5	0.3	0.5	0.5	0.2	0.4	0.4	0.5	12.4	0.5	0.1	0.1	0.3	0.5	0.2
CC(C)CN(C[C@@H](O)[C@H](Cc1ccccc1)NC(=O)O[C@H]1CO[C@H]2OCC[C@H]21)S(=O)(=O)c1ccc2nc(NC(=O)CN3CCCC3)sc2c1.O=C(O)/C=C/C(=O)O [Compound 13]	0.2	0.2	0.4	0.1	1.0	0.6	0.2	1.0	0.2	0.2	0.3	0.2	0.3	5.8	0.6	0.2	0.2	0.2	0.2	0.2
Cc1cccc(C)c1OCC(=O)N[C@@H](Cc1ccccc1)[C@H](O)CN(CC(C)C)S(=O)(=O)c1ccc2nc(NC(=O)CN3CCCC3)sc2c1 [Compound 37]	1.5	0.5	3.8	2.1	10.0	6.1	1.6	1.4	3.8	6.1	7.3	5.0	6.8	185.8	4.1	0.3	5.0	1.9	1.4	1.3
CC(=O)Nc1nc2ccc(S(=O)(=O)N(CC(C)C)CC(O)C(Cc3ccccc3)NC(=O)OC3COC4OCCC34)cc2s1 (mixture of isomers) [Compound 1]	0.7	0.4	0.8	0.2	1.0	0.8	0.6	1.0	0.7	0.4	0.4	0.5	0.8	5.1	0.9	0.2	0.5	0.3	0.7	0.3
CC(C)CN(C[C@@H](O)[C@H](Cc1ccccc1)NC(=O)O[C@H]1CCOC1)S(=O)(=O)c1ccc2nc(NC(=O)CN3CCN(C)CC3)sc2c1.O=C(O)C(F)(F)F [Compound 64]	0.6	0.7	2.3	0.2	17.0	4.6	0.7	0.9	0.6	0.7	0.8	1.0	1.3	165.5	0.9	0.2	0.7	0.7	0.6	0.6
CC(C)CN(C[C@@H](O)[C@H](Cc1ccccc1)NC(=O)O[C@H]1CO[C@H]2OCC[C@H]21)S(=O)(=O)c1ccc2nc(NC(=O)CN3CCCC3)sc2c1.O=C(O)C(=O)O [Compound 15]	0.2	0.3	0.2	0.1	0.8	0.5	0.3	0.4	0.3	0.3	0.2	0.3	0.3	7.2	0.5	0.1	0.2	0.2	0.3	0.3
CC(C)CN(CC(O)C(Cc1ccccc1)NC(=O)OC1COC2OCCC12)S(=O)(=O)c1ccc2nc(NC(=O)CN3CCOCC3)sc2c1 (mixture of isomers) [Compound 10]	0.3	0.3	0.3	0.2	0.5	0.5	0.4	0.0	0.6	0.4	0.4	0.3	0.4	4.9	0.4	0.3	0.3	0.4	0.5	0.5
